Measurements published in patent US7297700B2, “Bicycloheteroaryl compounds as P2X7 modulators and uses thereof” (Renovis, Inc., priority 2005, dated 2007).

The molecules below were run on IL-1β release from THP-1 cells (assay: IL-1β Release Assay (Alternate Method), THP-1 cells). Conditions: Homo sapiens, THP-1, read-out: IL-1β % inhibition.
Assay type: cell-based, human
Procedure: THP-1 cells (ATCC Cat #285-IF-100) are plated in 96 well plates at a concentration of 200,000 cells per well and allowed to differentiate in RPMI-1640 media (ATCC Cat #30-2001) containing 10% FBS, 100 IU/mL penicillin, 100 ug/mL streptomycin, 100 ng/mL LPS and 100 ng/mL IFN-γ for 16 hours. Following differentiation, the cells are treated for an additional 2 hours in RPMI-1640 media containing 100 IU/mL penicillin, 100 ug/mL streptomycin and fresh LPS at 100 ng/mL. The cells are then pretreated for 30 minutes with the compound of interest at the appropriate concentration in RPMI media containing 100 IU/mL penicillin, 100 ug/mL streptomycin. Following the pretreatment 2′, 3′-O-(4-benzoylbenzoyl)-adenosine 5′-triphosphate (Sigma Aldrich Cat#B6396) is added to a final concentration of 250 uM and the cells incubated for an additional 45 minutes. 30 uL of cell supernatant is then collected and IL-1β levels determined via ELISA (R&D systems Cat. #HSLB50) according to manufacturer's recommendations using the Tecan Safire plate reader. Background adjusted IL-1β levels of drug treated and non-treated cells are used to calculate the percent inhibition.

SMILES | inhibition at 0.3 µM [%]
O=C(CC12CC3CC(CC(C3)C1)C2)Nc1ncnc2c1CCN(Cc1ccccc1)C2 [Compound 5, 2-Adamantan-1-yl-N-(7-benzyl-5,6,7,8-tetrahydro-pyrido[3,4-d]pyrimidin-4-yl)-acetamide] | 25 to 50
O=C(CC12CC3CC(CC(C3)C1)C2)Nc1ncnc2c1CCN(CCO)C2 [Compound 18, 2-Adamantan-1-yl-N-[7-(2-hydroxy-ethyl)-5,6,7,8-tetrahydro-pyrido[3,4-d]pyrimidin-4-yl]-acetamide] | 0 to 25
O=C(CC12CC3CC(CC(C3)C1)C2)Nc1ncnc2c1CCN(CCCO)C2 [Compound 19, 2-adamantan-1-yl-N-[7-(3-hydroxy-propyl)-5,6,7,8-tetrahydro-pyrido[3,4-d]pyrimidin-4-yl]-acetamide] | 0 to 25
O=C(CC12CC3CC(CC(C3)C1)C2)Nc1ncnc2c1CCN(CC(O)CO)C2 (stereo not shown) [Compound 23, 2-Adamantan-1-yl-N-[7-(2,3-dihydroxy-propyl)-5,6,7,8-tetrahydro-pyrido[3,4-d]pyrimidin-4-yl]-acetamide] | 0 to 25

Same assay, conditions: Homo sapiens; at 0.3 μM; THP-1 cells; read-out: IL-1β % inhibition

SMILES | inhibition at 0.3 µM [%]
O=C(CC12CC3CC(CC(C3)C1)C2)Nc1ncnc2c1CCNC2 [Compound 6, 2-Adamantan-1-yl-N-(5,6,7,8-tetrahydro-pyrido[3,4-d]pyrimidin-4-yl)-acetamide] | 0 to 25
COCC(O)CN1CCc2c(ncnc2NC(=O)CC23CC4CC(CC(C4)C2)C3)C1 (stereo not shown) [Compound 13, 2-adamantan-1-yl-N-[7-(2-hydroxy-3-methoxy-propyl)-5,6,7,8-tetrahydro-pyrido[3,4-d]pyrimidin-4-yl]-acetamide] | 0 to 25
O=C(NCC12CC3CC(CC(C3)C1)C2)c1ncnc2c1CCN(Cc1ccccc1)C2 [Compound 17, 7-Benzyl-N-adamantylmethyl-5,6,7,8-tetrahydropyrido[3,4-d]pyrimidine-4-carboxamide] | > 75
O=C(CC12CC3CC(CC(C3)C1)C2)Nc1ncnc2c1CCN(Cc1ccc3c(c1)OCCO3)C2 [Compound 46] | > 75

Same assay, conditions: at 0.3 μM; THP-1 cells

SMILES | IL-1β % inhibition
O=C(NCCc1ccccc1Cl)c1ncnc2c1CCN(Cc1ccccc1)C2 [Compound 1] | + (compound exhibited 0-25% inhibition at 0.3 μM)
O=C(NCC1CCCCC1)c1ncnc2c1CCNC2 [Compound 2] | + (compound exhibited 0-25% inhibition at 0.3 μM)
O=C(NCCc1ccccc1)c1ncnc2c1CCNC2 [Compound 3] | + (compound exhibited 0-25% inhibition at 0.3 μM)
O=C(NCC1CCCCC1)c1ncnc2c1CCN(Cc1ccccc1)C2 [Compound 4] | + (compound exhibited 0-25% inhibition at 0.3 μM)
CN1CCc2c(ncnc2NC(=O)CC23CC4CC(CC(C4)C2)C3)C1 [Compound 7] | + (compound exhibited 0-25% inhibition at 0.3 μM)
CCN1CCc2c(ncnc2NC(=O)CC23CC4CC(CC(C4)C2)C3)C1 [Compound 8] | + (compound exhibited 0-25% inhibition at 0.3 μM)
O=C(CC1CCCCC1)Nc1ncnc2c1CCN(Cc1ccccc1)C2 [Compound 9] | + (compound exhibited 0-25% inhibition at 0.3 μM)
O=C(CC1CCCCC1)Nc1ncnc2c1CCNC2 [Compound 11] | + (compound exhibited 0-25% inhibition at 0.3 μM)
O=C(CC1CCCCCC1)Nc1ncnc2c1CCNC2 [Compound 12] | + (compound exhibited 0-25% inhibition at 0.3 μM)
O=C(CC12CC3CC(CC(C3)C1)C2)Nc1ncnc2c1CCN(CCc1ccccc1)C2 [Compound 14] | + (compound exhibited 0-25% inhibition at 0.3 μM)
CS(=O)(=O)c1ccc(CN2CCc3c(ncnc3NC(=O)CC34CC5CC(CC(C5)C3)C4)C2)cc1 [Compound 15] | + (compound exhibited 0-25% inhibition at 0.3 μM)
O=C(CC12CC3CC(CC(C3)C1)C2)Nc1ncnc2c1CCN(Cc1cccnc1)C2 [Compound 16] | + (compound exhibited 0-25% inhibition at 0.3 μM)
CCN1CCc2c(ncnc2NC(=O)CC2CCCCC2)C1 [Compound 20] | + (compound exhibited 0-25% inhibition at 0.3 μM)
O=C(CC1CCCCC1)Nc1ncnc2c1CCN(CCCO)C2 [Compound 21] | + (compound exhibited 0-25% inhibition at 0.3 μM)
O=C(CC1CCCCC1)Nc1ncnc2c1CCN(CCO)C2 [Compound 22] | + (compound exhibited 0-25% inhibition at 0.3 μM)
COc1ccccc1CCC(=O)Nc1ncnc2c1CCN(Cc1ccccc1)C2 [Compound 24] | + (compound exhibited 0-25% inhibition at 0.3 μM)
COc1ccccc1CCC(=O)Nc1ncnc2c1CCNC2 [Compound 25] | + (compound exhibited 0-25% inhibition at 0.3 μM)
CN1CCc2c(ncnc2NC(=O)CC2CCCCC2)C1 [Compound 26] | +++ (compound exhibited 50-75% inhibition at 0.3 μM)
O=C(CC12CC3CC(CC(C3)C1)C2)Nc1ncnc2c1CCN(Cc1ccccc1Cl)C2 [Compound 27] | +++ (compound exhibited 50-75% inhibition at 0.3 μM)
O=C(CC12CC3CC(CC(C3)C1)C2)Nc1ncnc2c1CCN(Cc1ccccc1F)C2 [Compound 28] | ++++ (compound exhibited 75% or greater inhibition at 0.3 μM)
COc1ccccc1CN1CCc2c(ncnc2NC(=O)CC23CC4CC(CC(C4)C2)C3)C1 [Compound 29] | + (compound exhibited 0-25% inhibition at 0.3 μM)
COc1ccc(CN2CCc3c(ncnc3NC(=O)CC34CC5CC(CC(C5)C3)C4)C2)c(OC)c1 [Compound 30] | ++++ (compound exhibited 75% or greater inhibition at 0.3 μM)

SMILES | IL-1β % inhibition
Cc1ccccc1CN1CCc2c(ncnc2NC(=O)CC23CC4CC(CC(C4)C2)C3)C1 [Compound 31] | +++ (compound exhibited 50-75% inhibition at 0.3 μM)
Cc1ccc(C)c(CN2CCc3c(ncnc3NC(=O)CC34CC5CC(CC(C5)C3)C4)C2)c1 [Compound 32] | + (compound exhibited 0-25% inhibition at 0.3 μM)
O=C(CC12CC3CC(CC(C3)C1)C2)Nc1ncnc2c1CCN(Cc1cccc(F)c1)C2 [Compound 33] | + (compound exhibited 0-25% inhibition at 0.3 μM)
O=C(CC12CC3CC(CC(C3)C1)C2)Nc1ncnc2c1CCN(Cc1cccc(Cl)c1)C2 [Compound 34] | + (compound exhibited 0-25% inhibition at 0.3 μM)
COc1cccc(CN2CCc3c(ncnc3NC(=O)CC34CC5CC(CC(C5)C3)C4)C2)c1 [Compound 35] | +++ (compound exhibited 50-75% inhibition at 0.3 μM)
COc1ccc(CN2CCc3c(ncnc3NC(=O)CC34CC5CC(CC(C5)C3)C4)C2)cc1OC [Compound 36] | + (compound exhibited 0-25% inhibition at 0.3 μM)
COc1cc(CN2CCc3c(ncnc3NC(=O)CC34CC5CC(CC(C5)C3)C4)C2)cc(OC)c1 [Compound 37] | + (compound exhibited 0-25% inhibition at 0.3 μM)
Cc1cccc(CN2CCc3c(ncnc3NC(=O)CC34CC5CC(CC(C5)C3)C4)C2)c1 [Compound 38] | + (compound exhibited 0-25% inhibition at 0.3 μM)
COc1ccc(CN2CCc3c(ncnc3NC(=O)CC34CC5CC(CC(C5)C3)C4)C2)cc1C [Compound 39] | + (compound exhibited 0-25% inhibition at 0.3 μM)
COc1ccc(CN2CCc3c(ncnc3NC(=O)CC34CC5CC(CC(C5)C3)C4)C2)cc1 [Compound 40] | + (compound exhibited 0-25% inhibition at 0.3 μM)
O=C(CC12CC3CC(CC(C3)C1)C2)Nc1ncnc2c1CCN(Cc1ccc(Cl)cc1)C2 [Compound 41] | + (compound exhibited 0-25% inhibition at 0.3 μM)
N#Cc1ccc(CN2CCc3c(ncnc3NC(=O)CC34CC5CC(CC(C5)C3)C4)C2)cc1 [Compound 42] | + (compound exhibited 0-25% inhibition at 0.3 μM)
O=C(CC12CC3CC(CC(C3)C1)C2)Nc1ncnc2c1CCN(Cc1ccncc1)C2 [Compound 43] | + (compound exhibited 0-25% inhibition at 0.3 μM)
Cc1ccc(CN2CCc3c(ncnc3NC(=O)CC34CC5CC(CC(C5)C3)C4)C2)cc1 [Compound 44] | + (compound exhibited 0-25% inhibition at 0.3 μM)
CCc1ccc(CN2CCc3c(ncnc3NC(=O)CC34CC5CC(CC(C5)C3)C4)C2)cc1 [Compound 45] | + (compound exhibited 0-25% inhibition at 0.3 μM)
O=C(CC12CC3CC(CC(C3)C1)C2)Nc1ncnc2c1CCN(Cc1ccc(F)cc1F)C2 [Compound 47] | ++++ (compound exhibited 75% or greater inhibition at 0.3 μM)
O=C(NCC1CCCCC1)c1ncnc2c1CCN(Cc1cccnc1)C2 [Compound 48] | + (compound exhibited 0-25% inhibition at 0.3 μM)
O=C(NCC1CCCCC1)c1ncnc2c1CCN(Cc1ccncc1)C2 [Compound 49] | + (compound exhibited 0-25% inhibition at 0.3 μM)
O=C(NCC1CCCCC1)c1ncnc2c1CCN(Cc1ccccc1Cl)C2 [Compound 50] | + (compound exhibited 0-25% inhibition at 0.3 μM)
O=C(NCC1CCCCC1)c1ncnc2c1CCN(Cc1ccc(Cl)cc1)C2 [Compound 51] | + (compound exhibited 0-25% inhibition at 0.3 μM)
O=C(NCC1CCCCC1)c1ncnc2c1CCN(Cc1ccccn1)C2 [Compound 52] | + (compound exhibited 0-25% inhibition at 0.3 μM)

Same assay, conditions: at 0.3 μM; THP-1 cells, BzATP-stimulated

SMILES | IL-1β % inhibition
O=C(C1COc2ccccc2C1)N1CCc2c(ncnc2NC(=O)C23CC4CC(CC(C4)C2)C3)C1 (racemic) [Compound 477] | ++ (compound exhibited 25-50% inhibition at 0.3 μM)
